Experimental data from PMC2784992 (Nature chemical biology, 2009).

System: Plasmodium falciparum lines, progeny, field isolates and transfected parasites
Conditions: 0.8 µM verapamil with DHMS

## COc1ccc(CCN(C)CCCC(C#N)(c2ccc(OC)c(OC)c2)C(C)C)cc1OC (stereo not shown) [verapamil]
  effect on parasite response to 1: did not have any effect
